Measurements from US20250171451A1, “NOVEL HETEROCYCLIC COMPOUND AND PHARMACEUTICAL COMPOSITION COMPRISING SAME” (Samjin Pharmaceutical Co., Ltd., priority 2022, published 2025).

How the values were obtained:
[1] = test system: TEAD response element (TRE) luciferase reporter in MCF-7 cell lines; test: TEAD response element (TRE) reporter assay; format: cell-based; conditions: 0.2 μM compound, 24 hours, MCF-7 TEAD reporter cells, relative to vehicle (1% DMSO); for inhibition at 0.2 µM: Homo sapiens, MCF7
Protocol: MCF-7 cell lines injected with TEAD reporter genes expressing firefly luciferase upon activation of TEAD response element (TRE) were obtained from BPS bioscience (#60618). The TEAD reporter genes were injected to stable expression in the MCF-7 cell lines.
TEAD reporter genes expressing firefly luciferase upon activation of TEAD response element (TRE) were injected with TEAD reporter genes to ensure stable expression of the TEAD reporter genes. Here, the TEAD reporter genes expresses firefly luciferase upon activation of TEAD response element (TRE). The cells were cultured in a cell-only culture medium (BPS bioscience) to which 10 μg/mL insulin (Sigma) was added at 37° C. and 5% CO2.
In 24 hours after dispensing said cells into a 96-well plate, each of the compounds of the examples or a vehicle solvent (final 1% DMSO) was treated by being diluted with a serum-free culture medium so that the final concentration became 0.2 μM. In 24 hours after said treatment, a luciferase assay working solution (ONE-Step Luciferase assay reagent; BPS bioscience) containing a luciferase substrate was treated in each well at 100 μL, and then left in a shaker for 15 minutes to be well mixed. Then, a degree of luminescence generated by luciferase expressed according to TEAD activation was measured by a microplate reader (TECAN). A relative activity of luciferase […], and the results are shown in table 8 below.

[2] = molecular target: T1, recombinant GST-TEAD1 proteins (209 to 426 a.a.) (Homo sapiens, UniProt P28347); test: Evaluation of palmitoylation of TEAD protein; format: biochemical; conditions: 5 μM compound, 15 minutes preincubation, 3 μM alkyne palmitoyl-CoA 30 minutes, pH 6.4, vs DMSO control
T1 construct: recombinant GST-TEAD1 proteins (209 to 426 a.a.)
Protocol: Each compound corresponding to a concentration of 5 μM was added to recombinant GST-TEAD1 proteins (209 to 426 a.a.) and cultured for 15 minutes. For an autopalmitoylation reaction of proteins after culturing, 3 μM alkyne palmitoyl-CoA (Cayman chemical) and 50 mM MES buffer (pH 6.4) were added and cultured for 30 minutes, after which 1% of sodium dodecyl sulfate (SDS) was added to stop the reaction. After that, biotinylation was performed through a CLICK (Click chemistry tools) reaction, and then a protein solution was concentrated to prepare a sample.
Analysis of the sample was performed using SDS-PAGE and streptavidin HRP (Thermo scientific). The resulting values were quantified using an Image J (NIH). For the intensity of the band obtained from Streptavidin blot, a palmitoylation inhibitory activity was analyzed based on the control group (DMSO). The normalization of each sample was performed using an anti-GST (91G1) (cell signaling) antibody.

T1 sequence (P28347 209-426): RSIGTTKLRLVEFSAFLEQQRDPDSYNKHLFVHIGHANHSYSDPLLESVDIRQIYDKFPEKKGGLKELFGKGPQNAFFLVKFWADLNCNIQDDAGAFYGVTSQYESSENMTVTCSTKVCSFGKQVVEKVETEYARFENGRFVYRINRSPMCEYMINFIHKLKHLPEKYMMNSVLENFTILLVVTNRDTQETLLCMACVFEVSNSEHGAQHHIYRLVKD

Compound | inhibition at 0.2 µM [1] [%] | inhibition at 5 µM [2] [%] | % of inhibition of TRE luciferase at 0.2 μM [1] | % of inhibition of TEAD1 palmitoylation at 5 μM [2]
C=CC(=O)Nc1cnc2c(c1)c(C)cn2CCC(C)C [Compound 26, N-(1-isopentyl-3-methyl-1H-pyrrolo[2,3-b]pyridin-5-yl)acrylamide] | 30 to 50 | > 80 |  | 
C=CC(=O)Nc1ccc2c(c1)c(C)nn2Cc1ccc(C(F)(F)F)cc1 [Compound 33, N-(3-methyl-1-(4-(trifluoromethyl)benzyl)-1H-indazol-5-yl)acrylamide] | > 50 | 40 to 80 |  | 
C=CS(=O)(=O)Nc1cnc2c(c1)c(C)nn2-c1ccc(C(F)(F)F)cc1 [Compound 85, N-(3-methyl-1-(4-(trifluoromethyl)phenyl)-1H-pyrazolo[3,4-b]pyridin-5-yl)ethenesulfonamide] | > 50 | > 80 |  | 
C=CC(=O)Nc1cnc2c(c1)c(C)nn2-c1cnc(C(F)(F)F)c(C)c1 [Compound 99, N-(3-methyl-1-(5-methyl-6-(trifluoromethyl)pyridin-3-yl)-1H-pyrazolo[3,4-b]pyridin-5-yl)acrylamide] | > 50 | 40 to 80 |  | 
C=CC(=O)Nc1cnc2c(c1)c(C)nn2-c1cc(F)cc(F)c1 [Compound 76, N-(1-(3,5-difluorophenyl)-3-methyl-1H-pyrazolo[3,4-b]pyridin-5-yl)acrylamide] | 30 to 50 | 40 to 80 |  | 
C=CC(=O)Nc1cnc2c(c1)c(C)nn2-c1ccc(C#N)cc1 [Compound 104, N-(1-(4-cyanophenyl)-3-methyl-1H-pyrazolo[3,4-b]pyridin-5-yl)acrylamide] | > 50 | < 40 |  | 
C=CC(=O)Nc1cnc2c(c1)c(C)nn2-c1ccccc1C(F)(F)F [Compound 82, N-(3-methyl-1-(2-(trifluoromethyl)phenyl)-1H-pyrazolo[3,4-b]pyridin-5-yl)acrylamide] | < 30 | < 40 |  | 
C=CC(=O)Nc1cnc2c(c1)c(C)nn2-c1ccc(N)cc1 [Compound 102, N-(1-(4-aminophenyl)-3-methyl-1H-pyrazolo[3,4-b]pyridin-5-yl)acrylamide] | < 30 | < 40 |  | 
C=CC(=O)Nc1cnc2ncn(Cc3ccc(C(F)(F)F)cc3)c2c1 [Compound 30, N-(1-(4-(trifluoromethyl)benzyl)-1H-imidazo[4,5-b]pyridin-6-yl)acrylamide] | < 30 | 40 to 80 |  | 
C=CC(=O)Nc1cnc2c(n1)c(C)cn2Cc1ccc(C(F)(F)F)cc1 [Compound 28, N-(7-methyl-5-(4-(trifluoromethyl)benzyl)-5H-pyrrolo[2,3-b]pyrazin-2-yl)acrylamide] | > 50 | > 80 |  | 
C=CC(=O)Nc1cnc2c(n1)c(C)nn2Cc1ccc(C(F)(F)F)cc1 [Compound 31, N-(3-methyl-1-(4-(trifluoromethyl)benzyl)-1H-pyrazolo[3,4-b]pyrazin-5-yl)acrylamide] | > 50 | 40 to 80 |  | 
CC=CC(=O)Nc1cnc2c(c1)c(C)cn2Cc1ccc(C(F)(F)F)cc1 [Compound 21, N-(3-methyl-1-(4-(trifluoromethyl)benzyl)-1H-pyrrolo[2,3-b]pyridin-5-yl)but-2-enamide] | < 30 | < 40 |  | 
C=CC(=O)Nc1cnc2c(c1)c(C)nn2CC1CCC(F)(F)CC1 [Compound 14, N-(1-((4,4-difluorocyclohexyl)methyl)-3-methyl-1H-pyrazolo[3,4-b]pyridin-5-yl)acrylamide] | > 50 | 40 to 80 |  | 
C=CC(=O)Nc1cnc2c(c1)c(C)nn2-c1ccc(F)nc1 [Compound 93, N-(1-(6-fluoropyridin-3-yl)-3-methyl-1H-pyrazolo[3,4-b]pyridin-5-yl)acrylamide] | 30 to 50 | 40 to 80 |  | 
C=CC(=O)Nc1cnc2c(c1)c(C)nn2C1=CCC(C(F)(F)F)CC1 (stereo not drawn) [Compound 68, N-(3-methyl-1-(4-(trifluoromethyl)cyclohex-1-en-1-yl)-1H-pyrazolo[3,4-b]pyridin-5-yl)acrylamide] | > 50 | 40 to 80 |  | 
C=CC(=O)Nc1cnc2c(c1)c(C)nn2-c1ccc(Cl)c(Cl)c1 [Compound 96, N-(1-(3,4-dichlorophenyl)-3-methyl-1H-pyrazolo[3,4-b]pyridin-5-yl)acrylamide] | > 50 | 40 to 80 |  | 

Compound | inhibition at 0.2 µM [1] [%] | inhibition at 5 µM [2] [%] | % of inhibition of TRE luciferase at 0.2 μM [1] | % of inhibition of TEAD1 palmitoylation at 5 μM [2]
C=CC(=O)Nc1cnc2c(c1)c(C)nn2-c1cnn(C(F)(F)F)c1 [Compound 101, N-(3-methyl-1-(1-(trifluoromethyl)-1H-pyrazol-4-yl)-1H-pyrazolo[3,4-b]pyridin-5-yl)acrylamide] | > 50 | 40 to 80 |  | 
C=CC(=O)Nc1cnc2c(cnn2CC2CCCC2)c1 [Compound 8, N-(1-(cyclopentylmethyl)-1H-pyrazolo[3,4-b]pyridin-5-yl)acrylamide] | 30 to 50 | 40 to 80 |  | 
N-(1-(4-(trifluoromethyl)benzyl)-1H-pyrazolo[3,4-b]pyridin-5-yl)acrylamide [Compound 5] |  |  | A (>50% inhibition) | A (>80% inhibition)
C=CC(=O)Nc1cnc2c(c1)c(C)nn2-c1cccc(OC)c1 [Compound 73, N-(1-(3-methoxyphenyl)-3-methyl-1H-pyrazolo[3,4-b]pyridin-5-yl)acrylamide] | < 30 | < 40 |  | 
C=CC(=O)Nc1cnc2c(c1)c(C)nn2Cc1ccc(C(C)(C)C)cc1 [Compound 60, N-(1-(4-(tert-butyl)benzyl)-3-methyl-1H-pyrazolo[3,4-b]pyridin-5-yl)acrylamide] | < 30 | 40 to 80 |  | 
C=CC(=O)Nc1cnc2c(c1)c(C)nn2-c1ccnc(C(F)(F)F)c1 [Compound 100, N-(3-methyl-1-(2-(trifluoromethyl)pyridin-4-yl)-1H-pyrazolo[3,4-b]pyridin-5-yl)acrylamide] | > 50 | < 40 |  | 
C=CC(=O)Nc1cnc2c(ccn2Cc2ccc(C(F)(F)F)cc2)n1 [Compound 15, N-(5-(4-(trifluoromethyl)benzyl)-5H-pyrrolo[2,3-b]pyrazin-2-yl)acrylamide] | > 50 | > 80 |  | 
C=CC(=O)Nc1cnc2c(c1)c(C)nn2-c1cccc(C(F)(F)F)c1 [Compound 52, N-(3-methyl-1-(3-(trifluoromethyl)phenyl)-1H-pyrazolo[3,4-b]pyridin-5-yl)acrylamide] | > 50 | 40 to 80 |  | 
C=CC(=O)Nc1cnc2c(c1)c(C)nn2-c1ccc(F)cc1 [Compound 70, N-(1-(4-fluorophenyl)-3-methyl-1H-pyrazolo[3,4-b]pyridin-5-yl)acrylamide] | 30 to 50 | < 40 |  | 
C=CC(=O)Nc1cnc2c(c1)c(C)nn2-c1ccc(C(F)(F)F)c(O)c1 [Compound 87, N-(1-(3-hydroxy-4-(trifluoromethyl)phenyl)-3-methyl-1H-pyrazolo[3,4-b]pyridin-5-yl)acrylamide] | < 30 | 40 to 80 |  | 
C=CC(=O)Nc1cnc2c(c1)c(C)cn2C1CCCCC1 [Compound 57, N-(1-cyclohexyl-3-methyl-1H-pyrrolo[2,3-b]pyridin-5-yl)acrylamide] | < 30 | 40 to 80 |  | 
C=CC(=O)Nc1cnc2c(c1)c(C)cn2Cc1ccc(C(F)(F)F)s1 [Compound 63, N-(3-methyl-1-((5-(trifluoromethyl)thiophen-2-yl)methyl)-1H-pyrrolo[2,3-b]pyridin-5-yl)acrylamide] | 30 to 50 | 40 to 80 |  | 
C=CC(=O)Nc1ccc2cnn(-c3ccc(C(F)(F)F)cc3)c2c1 [Compound 34, N-(1-(4-(trifluoromethyl)phenyl)-1H-indazol-6-yl)acrylamide] | 30 to 50 | 40 to 80 |  | 
C=CC(=O)Nc1cnc2ncn(-c3ccc(C4CCCCC4)cc3)c2c1 [Compound 2, N-(1-(4-cyclohexylphenyl)-1H-imidazo[4,5-b]pyridin-6-yl)acrylamide] | < 30 |  |  | 
C=CS(=O)(=O)Nc1cnc2ncn(-c3ccc(C4CCCCC4)cc3)c2c1 [Compound 1, N-(1-(4-cyclohexylphenyl)-1H-imidazo[4,5-b]pyridin-6-yl)ethenesulfonamide] | < 30 |  |  | 
